Results from paper PMC10042540, “Targeting oncogenic KRasG13C with nucleotide-based covalent inhibitors” (eLife, 2023).

Columns and labels:
SOS = assay: Guanine nucleotide-exchange factor assay (mantdGDP fluorescence); type: biochemical
Experimental: SOS-catalysed nucleotide exchange was monitored at 25 °C in a FluoroMax-3 spectrofluorometer (excitation at 360 nm, emission at 440 nm) in 20 mM HEPES (pH 7.5), 100 mM NaCl, 2 mM MgCl2, and 1 mM TCEP. 5 µM KRas1-169 was mixed with 10 µM mantdGDP and subsequently with different concentrations of SOS (0.25 µM and 0.5 µM) (Figure 3A; Figure 3—figure supplement 1).

[1] = system: GST-tagged cRafRBD (amino acids 51–131); assay: Effector binding (pull-down experiments); conditions: in the presence of GppNHp alone or in combination with SOS
Experimental: Pull-down experiments were performed in 20 mM HEPES pH 7.5, 50 mM NaCl and 2 mM MgCl2. […] Afterwards, 50 µL glutathione magnetic beads were added to each sample for 30 min. After washing the beads with 500 µL buffer, the beads were settled with a magnet and the supernatant was carefully removed. The beads were resuspended in 50 µL of 4xSDS-loading buffer and visualized via SDS-PAGE (Figure 3—figure supplement 3).

[2] = system: farnesyltransferase (FTase); assay: In vitro farnesylation; type: biochemical; conditions: full-length protein, FPP, ESI-MS
Experimental: 50 µM of full-length KRas protein was mixed with 250 µM farnesyl pyrophosphate (FPP) and 10 µM farnesyltransferase (FTase). After incubation at room temperature for 1 hr the mixture was centrifugated at 14,000 rpm for 10 min at 4 °C and analyzed via ESI-MS (Figure 3—figure supplement 4).

[3] = system: Ras pathway (pcRaf, pAkt, pErk, pS6); assay: Electroporation into HeLa cells, western blot of downstream signalling; type: cell-based, human; conditions: electroporation of 50-300 µg protein
Experimental: (§1) HeLa cells were obtained from the American Type Culture Collection (ATCC) and were cultured in DMEM medium (Gibco) supplemented with 10% fetal bovine serum (FBS) (PAN-Biotech) and 1% penicillin/streptomycin (Gibco). Cells were cultured in a humidified incubator at 37 °C in the presence of 5% CO2. The identity of the cells was validated by STR profiling and the cells were tested negative for mycoplasma contamination.
(§2) Electroporation of full-length KRas constructs (KRasWT, KRasG13C, KRasG13C-edaGDP, KRasG13C:acetyledaGDP and KRasG13C-edaGppCp) was performed based on the protocol described by [Alex et al., 2019] using the Neon Transfection System Kit (Thermo Fisher). For electroporation, 3 million cells per experiment were harvested by trypsinization, washed with PBS, and resuspended in 85 µL of the electroporation buffer R (Thermo Fisher). Increasing amounts of recombinant protein samples for each construct (0, 50, 100, 200 and 300 µg) were diluted 1:1 in buffer R followed by the addition of 30 µL of this protein master mix to the cell suspension. This cellular slurry was loaded into a […] Neon Pipette Tip (Thermo Fisher) and electroporated with 2x35 ms pulses at 1000 V. After electroporation, the cells were washed twice with PBS (15 mL) to remove non-internalized extracellular protein and the cell pellet was resuspended in 2 mL complete growth media. Cells were transferred into six-well tissue culture plates (Sarstedt) and incubated for 24 hr at 37 °C and 5% CO2 in a humidified incubator for recovery before being processed for western blotting analysis.
After recovery of the electroporation, cells were washed twice with ice-cold PBS and lysed in 100 µL of phosphatase and protease inhibitor containing RIPA buffer (Cell Signaling Technology). Cells were incubated on ice for 30 min and then harvested by scraping followed by centrifugation at 14,000 rpm for 10 min at 4 °C. Protein concentrations were determined using the Pierce BCA protein assay (Thermo) following the manufacturer’s recommended procedure. Equal amounts of protein (10 µg) were analyzed by SDS-PAGE and transferred to Immobilon-FL PVDF membranes (Merck Millipore) using Pierce 1-step transfer buffer (Thermo) and the Pierce Power Blotter (Thermo). Membranes were washed with ddH2O for 5 min, blocked with OdysseyBlocking Buffer TBS (Li-Cor) for 1 hr at room temperature and then incubated with primary antibodies diluted in OdysseyBlocking Buffer TBS overnight at 4 °C with gentle agitation. […] Quantification of protein levels from western blots was performed using Empiria Studio (Li-Cor) (Figure 3B, C, Figure 3—figure supplements 6–9).

tAkt1 = assay: Electroporation into HeLa cells, western blot quantification; type: cell-based, human; conditions: for tAkt mean fold change: mean of cell lysates
Experimental: as §1, §2
(§3) After recovery of the electroporation, cells were washed twice with ice-cold PBS and lysed in 100 µL of phosphatase and protease inhibitor containing RIPA buffer (Cell Signaling Technology). Cells were incubated on ice for 30 min and then harvested by scraping followed by centrifugation at 14,000 rpm for 10 min at 4 °C. Protein concentrations were determined using the Pierce BCA protein assay (Thermo) following the manufacturer’s recommended procedure. Equal amounts of protein (10 µg) were analyzed by SDS-PAGE and transferred to Immobilon-FL PVDF membranes (Merck Millipore) using Pierce 1-step transfer buffer (Thermo) and the Pierce Power Blotter (Thermo). Membranes were washed with ddH2O for 5 min, blocked with OdysseyBlocking Buffer TBS (Li-Cor) for 1 hr at room temperature and then incubated with primary antibodies diluted in OdysseyBlocking Buffer TBS overnight at 4 °C with gentle agitation. KRas (Sigma Aldrich, SAB1404011-100UG), pcRafS338 (CST, 9427), tAkt1 (CST, 2938), pAktS473 (CST, 4060), tErk (CST, 4696), pErkT202/Y204 (CST, 4370), pS6S235/236 (CST, 4858), and β-actin (CST, 4970/Sigma-Aldrich, A5441) antibodies were used to detect the individual proteins. After primary antibody incubation, membranes were washed three times with TBS-T (50 mM Tris, 150 mM NaCl, 0.05% Tween 20, pH 7.4) for 5 min before being incubated with secondary antibodies (anti-mouse IgG (H+L) (DyLight 680 Conjugate) (CST, 5470) / anti-rabbit IgG (H+L) (DyLight 800 4 X PEG Conjugate) (CST, 5151)) diluted in OdysseyBlocking Buffer TBS for 1 hr at room temperature with gentle agitation. After secondary antibody incubation, the membranes were washed three times for 5 min with TBS-T and then scanned using an OdysseyCLx imaging system (Li-Cor). Quantification of protein levels from western blots was performed using Empiria Studio (Li-Cor) (Figure 3B, C, Figure 3—figure supplements 6–9).

tErk = assay: as above; type: cell-based, human; conditions: for tErk mean fold change: mean of cell lysates
Experimental: as §1, §2, §3

For “KRasG13C-edaGDP: KRasG13C covalently locked with edaGDP at Cys13”, which SOS-catalysed nucleotide exchange (SOS; 5 µM KRas1-169, 10 µM mantdGDP, 0.25 or 0.5 µM SOS) is on record?
Its SOS-catalysed nucleotide exchange is “unable to do so”.

And the “intrinsic nucleotide exchange rate” value (SOS; absence of SOS)?
The value was “abrogated”.

And the “binding to RafRBD (pull-down)” value [1]?
The value was “neither in the presence of GppNHp nor of additional SOS able to bind to the RafRBD”.

And the in vitro farnesylation [2]?
The in vitro farnesylation was “fully farnesylated”.

And the “downstream signalling (pcRaf, pAkt, pErk, pS6)” value [3]?
Its value is “unable to induce these effects”.

And the tAkt fold change (tAkt1; 50 µg, Cell lysate 1)?
Its tAkt fold change is 0.65.

And the tAkt fold change (tAkt1; 50 µg, Cell lysate 2)?
Its tAkt fold change is 1.23.

What about the tAkt fold change (tAkt1; 50 µg, Cell lysate 3) of the same substance?
The tAkt fold change was 1.06.

What about the “tAkt mean fold change” value (tAkt1; 50 µg) of the same substance?
Its value is 0.98.

What about the tAkt fold change (tAkt1; 100 µg, Cell lysate 1) of the same substance?
Its tAkt fold change is 0.92.

What about the tAkt fold change (tAkt1; 100 µg, Cell lysate 2) of the same substance?
Its tAkt fold change is 1.65.

What about the tAkt fold change (tAkt1; 100 µg, Cell lysate 3) of the same substance?
Its tAkt fold change is 0.97.

And the “tAkt mean fold change” value (tAkt1; 100 µg)?
Its value is 1.18.

And the tAkt fold change (tAkt1; 200 µg, Cell lysate 1)?
The tAkt fold change was 1.06.

What about the tAkt fold change (tAkt1; 200 µg, Cell lysate 2) of the same substance?
The tAkt fold change was 1.22.

What about the tAkt fold change (tAkt1; 200 µg, Cell lysate 3) of the same substance?
The tAkt fold change was 0.78.

And the “tAkt mean fold change” value (tAkt1; 200 µg)?
Its value is 1.02.

And the tAkt fold change (tAkt1; 300 µg, Cell lysate 1)?
Its tAkt fold change is 0.92.

And the tAkt fold change (tAkt1; 300 µg, Cell lysate 2)?
The tAkt fold change was 0.97.

What about the tAkt fold change (tAkt1; 300 µg, Cell lysate 3) of the same substance?
Its tAkt fold change is 0.68.

What about the “tAkt mean fold change” value (tAkt1; 300 µg) of the same substance?
Its value is 0.86.

What about the tErk fold change (tErk; 50 µg, Cell lysate 1) of the same substance?
The tErk fold change was 0.84.

What about the tErk fold change (tErk; 50 µg, Cell lysate 2) of the same substance?
Its tErk fold change is 2.08.

And the tErk fold change (tErk; 50 µg, Cell lysate 3)?
The tErk fold change was 0.64.

And the “tErk mean fold change” value (tErk; 50 µg)?
Its value is 1.19.

And the tErk fold change (tErk; 100 µg, Cell lysate 1)?
Its tErk fold change is 0.91.

What about the tErk fold change (tErk; 100 µg, Cell lysate 2) of the same substance?
Its tErk fold change is 1.86.

And the tErk fold change (tErk; 100 µg, Cell lysate 3)?
The tErk fold change was 0.78.

And the “tErk mean fold change” value (tErk; 100 µg)?
Its value is 1.18.

And the tErk fold change (tErk; 200 µg, Cell lysate 1)?
The tErk fold change was 1.12.

And the tErk fold change (tErk; 200 µg, Cell lysate 2)?
The tErk fold change was 1.76.

What about the tErk fold change (tErk; 200 µg, Cell lysate 3) of the same substance?
The tErk fold change was 0.74.

And the “tErk mean fold change” value (tErk; 200 µg)?
The value was 1.21.

What about the tErk fold change (tErk; 300 µg, Cell lysate 1) of the same substance?
The tErk fold change was 1.26.

And the tErk fold change (tErk; 300 µg, Cell lysate 2)?
The tErk fold change was 1.23.

What about the tErk fold change (tErk; 300 µg, Cell lysate 3) of the same substance?
The tErk fold change was 0.72.

And the “tErk mean fold change” value (tErk; 300 µg)?
Its value is 1.07.
